According to paper PMC9572942, “The Discovery of Small Allosteric and Active Site Inhibitors of the SARS-CoV-2 Main Protease via Structure-Based Virtual Screening and Biological Evaluation” (Molecules, 2022):

Assays:
SARS-CoV-2 M^pro enzyme [1] = molecular target: T1, SARS-CoV-2 M^pro enzyme (Severe acute respiratory syndrome coronavirus 2, UniProt P0DTD1); experiment: Inhibition kinetic study (Lineweaver–Burk, FRET assay); type: biochemical; settings: from slope of Lineweaver–Burk curves vs. inhibitor concentration
SARS-CoV-2 M^pro enzyme [2] = molecular target: T1, SARS-CoV-2 M^pro enzyme; experiment: FRET-based enzyme assay and IC50 determination; type: biochemical; settings: 4.6 μM enzyme, HEPES pH 6.5

`O=C(CSc1cnc2ccccc2n1)NC1CCCC1` [CB03] gave a Ki (SARS-CoV-2 M^pro enzyme [1]) of 256 µM and an IC50 (SARS-CoV-2 M^pro enzyme [2]) of 301 ± 10 µM.
